Laboratory results: patent US8377935B2, “Substituted aminopropenyl piperidine or morpholine derivatives as novel inhibitors of histone deacetylase” (Janssen Pharmaceutica N.V., priority 2005, dated 2013)
Where two headings read alike, the source gives them in different places.

Columns and labels:
[1] = not given; remark: listed apart in the source
[2] = Solubility/stability (chemiluminescent nitrogen detector); type: physicochemical; settings: water
Source text: The solubility of a compound measures the ability of a compound to stay in solution. The solubility of a compound at different pH's can be measured with the use of a chemiluminescent nitrogen detector (see example C.3).
The solubility of a compound, at different pH's, can be measured with the use of a chemiluminescent nitrogen detector.

[3] = biological target: histone deacetylase (HeLa nuclear extracts); assay: In vitro assay for inhibition of histone deacetylase (HDAC Fluorescent Activity Assay, Fluor de Lys); type: biochemical; settings: HeLa nuclear extracts 60 μg/ml, 75 μM Fluor de Lys substrate
Source text: The in vitro assay for inhibition of histone deacetylase (see example C.1) measures the inhibition of HDAC enzymatic activity obtained with the compounds of formula (I).
The HDAC Fluorescent Activity Assay/Drug Discovery Kit of Biomol (cat.No: AK-500-0001) was used. The HDAC Fluorescent Activity Assay is based on the Fluor de Lys (Fluorogenic Histone deAcetylase Lysyl) substrate and developer combination. The Fluor de Lys substrate, comprises an acetylated lysine side chain. Deacetylation of the substrate sensitizes the substrate so that, in the second step, treatment with the Fluor de Lys developer produces a fluorophore.
HeLa nuclear extracts (supplier: Biomol) were incubated at 60 μg/ml with 75 μM of substrate. The Fluor de Lys substrate was added in a buffer containing 25 mM Tris, 137 mM. NaCl, 2.7 mM KCl and 1 mM MgCl2.6H2O at pH 7.4. After 30 min, 1 volume of the developer was added. The fluorophore was excited with 355 nm light and the emitted light (450 nm) was be detected on a fluorometric plate reader.
For each experiment, controls (containing HeLa nuclear extract and buffer), a blank incubation (containing buffer but no HeLa nuclear extract) and samples (containing compound dissolved in DMSO and further diluted in buffer and HeLa nuclear extract) were run in parallel. In first instance, compounds were tested at a concentration of 10^−5M. […] All sample were tested 4 times. In each test the blank value was substracted from both the control and the sample values. The control sample represented 100% of substrate deactylation. For each sample the fluorescence was expressed as a percentage of the mean value of the controls. […] Herein the effects of test compounds are expressed as pIC50 (the negative log value of the IC50-value) (see Table F-3).

[4] = test system: A2780 ovarian carcinoma cells; assay: Determination of antiproliferative activity on A2780 cells (MTT); type: cell-based; settings: Homo sapiens, 96 h, four days of incubation, read-out: Cellular activity pIC50 (converted)
Description: Cellular activity of the compounds of formula (I) was determined on A2780 tumour cells using a colorimetric assay for cell toxicity or survival (Mosmann Tim, Journal of Immunological Methods 65:55-63, 1983)(see example C.2).
All compounds tested were dissolved in DMSO and further dilutions were made in culture medium. Final DMSO concentrations never exceeded 0.1% (v/v) in cell proliferation assays. Controls contained A2780 cells and DMSO without compound and blanks contained DMSO but no cells. MTT was dissolved at 5 mg/ml in PBS. A glycine buffer comprised of 0.1 M glycine and 0.1 M NaCl buffered to pH 10.5 with NaOH (1 N) was prepared (all reagents were from Merck).
The human A2780 ovarian carcinoma cells (a kind gift from Dr. T. C. Hamilton [Fox Chase Cancer Centre, Pennsylvania, USA]) were cultured in RPMI 1640 medium supplemented with 2 mM L-glutamine, 50 μg/ml gentamicin and 10% fetal calf serum. Cells were routinely kept as monolayer cultures at 37° C. in a humidified 5% CO2 atmosphere. Cells were passaged once a week using a trypsin/EDTA solution at a split ratio of 1:40. All media and supplements were obtained from Life Technologies. Cells were free of mycoplasma contamination as determined using the Gen-Probe Mycoplasma Tissue Culture kit (supplier: BioMerieux).
Cells were seeded in NUNC™ 96-well culture plates (Supplier: Life Technologies) and allowed to adhere to the plastic overnight. Densities used for plating were 1500 cells per well in a total volume of 200 μl medium. After cell adhesion to the plates, medium was changed and drugs and/or solvents were added to a final volume of 200 μl. Following four days of incubation, medium was replaced by 200 μl fresh medium and cell density and viability was assessed using an MTT-based assay. To each well, 25 μl MTT solution was added and the cells were further incubated for 2 hours at 37° C. The medium was then carefully aspirated and the blue MTT-formazan product was solubilized by addition of 25 μl glycine buffer followed by 100 μl of DMSO. […] Within an experiment, the results for each experimental condition are the mean of 3 replicate wells. For initial screening purposes, compounds were tested at a single fixed concentration of 10^−6 M. For active compounds, the experiments were repeated to establish full concentration-response curves. For each experiment, controls (containing no drug) and a blank incubation (containing no cells or drugs) were run in parallel. The blank value was subtracted from all control and sample values. For each sample, the mean value for cell growth (in absorbance units) was expressed as a percentage of the mean value for cell growth of the control. […] Herein the effects of test compounds are expressed as pIC50 (the negative log value of the IC50-value)(see Table F-3).

[5] = Metabolic stability with rat hepatocytes cell culture; type: in vitro ADME; settings: rat hepatocyte cell cultures, 5 μM
Source text: Metabolism of drugs means that a lipid-soluble xenobiotic or endobiotic compound is enzymatically transformed into (a) polar, water-soluble, and excretable metabolite(s). The major organ for drug metabolism is the liver. […] However, some metabolites may have enhanced activity or toxic effects. Thus drug metabolism may include both “detoxication” and “toxication” processes. One of the major enzyme systems that determine the organism's capability of dealing with drugs and chemicals is represented by the cytochrome P450 monooxygenases, which are NADPH dependent enzymes. Metabolic stability of compounds can be determined in vitro with the use of subcellular human tissue (see example C.5.a.). Here metabolic stability of the compounds is expressed as % of drug metabolised after 15 minutes incubation of these compounds with microsomes. Quantitation of the compounds was determined by LC-MS analysis. Metabolic stability of compounds can also be determined by calculating the half live of compounds in rat hepatocyte cells (see example C.5.b.). […]
Samples were prepared for LC-MS by addition of two volumes of DMSO. […] Of the resulting supernatant 50 μl was analysed by LC-MS. […]
Total injection volume of samples was 50 μL. […] The mass spectrometer was operated in positive ion mode in SIM adjusted to the mass of […] with a scan width of 1 Da for quantification purposes. […]

Compound | melting point | Enzyme activity pIC50 [3] | IC50 [4] | also measured
O=C(NO)c1cnc(N2CCC(CNC(/C=C/c3ccccc3)CO)CC2)nc1 (stereo not shown) (hydrate or solvate) [Compound 1] | 196 °C | – | – | –
O=C(NO)c1cnc(N2CCC(NC(/C=C/c3ccccc3)CO)CC2)nc1 (stereo not shown) (hydrate or solvate) [Compound 2] | 109 °C | – | – | –
COc1cc(N)c(Cl)cc1C(=O)NC1CCN(CCCOc2ccc(F)cc2)CC1OC (stereo not shown) [Cisapride] | – | – | – | % metabolism ([1]; human, 15 min, 5 μM): 45%
O=C(NO)c1cnc(N2CCC(NC(/C=C/c3ccccc3)CO)CC2)nc1 (stereo not shown) [Compound 2] | – | 8.0 | 158 nM | solubility [2]: > 500 µg/mL
CC(/C=C/c1ccccc1)NCC1CCN(c2ncc(C(=O)NO)cn2)CC1 (stereo not shown) [Compound 3] | 155 °C | 8.3 | 50.1 nM | solubility [2]: > 1000 µg/mL
CC(=O)N(CC1CCN(c2ncc(C(=O)NO)cn2)CC1)C(C)/C=C/c1ccccc1 (stereo not shown) [Compound 4] | 100 °C | 8.7 | 158 nM | solubility [2]: > 100 µg/mL
Nc1ccccc1NC(=O)c1cnc(N2CCC(CNC(/C=C/c3ccccc3)CO)CC2)nc1 (stereo not shown) [Compound 5] | 178 °C | 6.0 | 3160 nM | –
O=C(NO)c1cnc(N2CCOC(CNC(/C=C/c3ccccc3)CO)C2)nc1 (stereo not shown) [Compound 6] | 111 °C | 8.1 | 79.4 nM | –
Nc1ccccc1NC(=O)c1cnc(N2CCOC(CNC(/C=C/c3ccccc3)CO)C2)nc1 (stereo not shown) [Compound 7] | 95 °C | 6.0 | 1260 nM | –
CC(/C=C/c1ccccc1)N(CC1CCN(c2ncc(C(=O)NO)cn2)CC1)S(C)(=O)=O (stereo not shown) [Compound 8] | 110 °C | 9.5 | 200 nM | –
O=C(NO)c1cnc(N2CCN(S(=O)(=O)c3ccc4ccccc4c3)CC2)nc1 [Compound R306465, reference compound] | – | – | – | in vitro half-live [5]: 8 min
CCCO [propanol] | – | – | – | % metabolism ([1]; 15 min incubation with active microsomes, compound 5 μM): 25%
